According to publication PMC5218480 (PLoS ONE, 2017):

Test system: MV-4-11 cells
Test: Gene expression microarray analysis (Affymetrix PrimeView) and GSEA
Type: cell-based, human
Design: RFU PODN (11730768_x_at) / Fold change /veh PODN (11730768_x_at) / RFU LINC00158 (11744669_a_at) / Fold change /veh LINC00158 (11744669_a_at) / RFU DUSP10 (11751237_a_at) / Fold change /veh DUSP10 (11751237_a_at) / RFU ID3 (11757404_x_at) / Fold change /veh ID3 (11757404_x_at) / RFU PLEKHG5 (11737974_s_at) / Fold change /veh PLEKHG5 (11737974_s_at) / RFU LRRC4B (11730491_at) / Fold change /veh LRRC4B (11730491_at) / RFU GIMAP4 (11747438_a_at) / Fold change /veh GIMAP4 (11747438_a_at) / RFU KRT8 (11758183_x_at) / Fold change /veh KRT8 (11758183_x_at) / RFU CNN1 (11734310_a_at) / Fold change /veh CNN1 (11734310_a_at) / RFU VPS37D (11726825_at) / Fold change /veh VPS37D (11726825_at) / RFU C10orf10 (11716522_x_at) / Fold change /veh C10orf10 (11716522_x_at) / RFU KIR2DL2 /// KIR2DL4 /// KIR2DL5A /// KIR2DL5B /// KIR2DS1 /// KIR2DS2 /// KIR2DS3 /// KIR2DS4 /// KIR3DL3 /// KIR3DL3 /// KIR3DS1 (11738374_at) / Fold change /veh KIR2DL2 /// KIR2DL4 /// KIR2DL5A /// KIR2DL5B /// KIR2DS1 /// KIR2DS2 /// KIR2DS3 /// KIR2DS4 /// KIR3DL3 /// KIR3DL3 /// KIR3DS1 (11738374_at) / RFU C1QL1 (11718748_at) / Fold change /veh C1QL1 (11718748_at) / RFU TMPRSS4 (11747572_a_at) / Fold change /veh TMPRSS4 (11747572_a_at) / RFU HAMP (11756126_x_at) / Fold change /veh HAMP (11756126_x_at) / RFU RNFT2 (11725882_a_at) / Fold change /veh RNFT2 (11725882_a_at) / RFU NR4A2 (11747474_a_at) / Fold change /veh NR4A2 (11747474_a_at) / RFU ABCC12 (11746883_a_at) / Fold change /veh ABCC12 (11746883_a_at) / RFU TMEM136 (11760407_x_at) / Fold change /veh TMEM136 (11760407_x_at) / RFU CLDN22 /// WWC2 (11732394_at) / Fold change /veh CLDN22 /// WWC2 (11732394_at) / RFU HLA-DPB1 (11760878_x_at) / Fold change /veh HLA-DPB1 (11760878_x_at) / RFU SPINT1 (11716480_a_at) / Fold change /veh SPINT1 (11716480_a_at) / RFU GAP43 (11754022_s_at) / Fold change /veh GAP43 (11754022_s_at) / RFU A4GNT (11735810_at) / Fold change /veh A4GNT (11735810_at) / RFU PRB3 (11715151_x_at) / Fold change /veh PRB3 (11715151_x_at) / RFU TUBB4B (11761932_at) / Fold change /veh TUBB4B (11761932_at) / RFU CAPN14 (11732068_a_at) / Fold change /veh CAPN14 (11732068_a_at) / RFU TMCC2 (11721928_a_at) / Fold change /veh TMCC2 (11721928_a_at) / RFU IRGQ (11745062_a_at) / Fold change /veh IRGQ (11745062_a_at) / RFU FAM174B (11720279_a_at) / Fold change /veh FAM174B (11720279_a_at) / RFU TMPRSS4 (11748680_a_at) / Fold change /veh TMPRSS4 (11748680_a_at) / RFU FAM212B (11763350_a_at) / Fold change /veh FAM212B (11763350_a_at) / RFU PLEKHG5 (11743358_a_at) / Fold change /veh PLEKHG5 (11743358_a_at) / RFU ZSCAN30 (11745921_a_at) / Fold change /veh ZSCAN30 (11745921_a_at) / RFU CMKLR1 (11741424_a_at) / Fold change /veh CMKLR1 (11741424_a_at) / RFU LOC101060620 /// MAPK8IP1 (11723275_at) / Fold change /veh LOC101060620 /// MAPK8IP1 (11723275_at) / RFU SPTSSB (11747773_x_at) / Fold change /veh SPTSSB (11747773_x_at) / RFU PRSS12 (11739890_at) / Fold change /veh PRSS12 (11739890_at) / RFU BIN1 (11741810_x_at) / Fold change /veh BIN1 (11741810_x_at) / RFU WNT11 (11732464_a_at) / Fold change /veh WNT11 (11732464_a_at) / RFU C10orf10 (11716521_a_at) / Fold change /veh C10orf10 (11716521_a_at) / RFU C5orf56 (11738089_at) / Fold change /veh C5orf56 (11738089_at) / RFU CYB561 (11721691_x_at) / Fold change /veh CYB561 (11721691_x_at) / RFU ANKRD19P (11752326_a_at) / Fold change /veh ANKRD19P (11752326_a_at) / RFU OR2T12 /// OR2T33 /// OR2T8 (11738714_s_at) / Fold change /veh OR2T12 /// OR2T33 /// OR2T8 (11738714_s_at) / RFU VCAN (11748164_a_at) / Fold change /veh VCAN (11748164_a_at) / RFU JSRP1 (11732532_at) / Fold change /veh JSRP1 (11732532_at) / RFU KRTAP10-11 (11738290_x_at) / Fold change /veh KRTAP10-11 (11738290_x_at) / RFU MYO3A (11730013_a_at) / Fold change /veh MYO3A (11730013_a_at) / RFU EBF3 (11725865_a_at) / Fold change /veh EBF3 (11725865_a_at) / RFU CAMK2N1 (11719241_x_at) / Fold change /veh CAMK2N1 (11719241_x_at) / RFU C5orf56 (11738088_a_at) / Fold change /veh C5orf56 (11738088_a_at) / RFU OLFML3 (11715873_a_at) / Fold change /veh OLFML3 (11715873_a_at) / RFU LOC100653217 /// NTM (11731650_a_at) / Fold change /veh LOC100653217 /// NTM (11731650_a_at) / RFU MAPK11 (11762145_a_at) / Fold change /veh MAPK11 (11762145_a_at) / RFU FIZ1 (11724087_x_at) / Fold change /veh FIZ1 (11724087_x_at) / RFU OASL (11726364_x_at) / Fold change /veh OASL (11726364_x_at) / RFU SOX15 (11748057_x_at) / Fold change /veh SOX15 (11748057_x_at) / RFU CD79A (11719716_a_at) / Fold change /veh CD79A (11719716_a_at) / RFU HIST1H1D (11736915_at) / Fold change /veh HIST1H1D (11736915_at) / RFU CASKIN2 (11723855_a_at) / Fold change /veh CASKIN2 (11723855_a_at) / RFU LOC730098 (11760151_x_at) / Fold change /veh LOC730098 (11760151_x_at) / RFU OR4N2 (11742367_at) / Fold change /veh OR4N2 (11742367_at) / RFU PRRT2 (11749266_a_at) / Fold change /veh PRRT2 (11749266_a_at) / RFU SNX32 (11753110_a_at) / Fold change /veh SNX32 (11753110_a_at) / RFU CDHR5 (11726645_a_at) / Fold change /veh CDHR5 (11726645_a_at) / RFU RCAN1 (11760418_a_at) / Fold change /veh RCAN1 (11760418_a_at) / RFU FAM167A (11723789_a_at) / Fold change /veh FAM167A (11723789_a_at) / RFU FAM26E (11764081_at) / Fold change /veh FAM26E (11764081_at) / RFU ISYNA1 (11749810_s_at) / Fold change /veh ISYNA1 (11749810_s_at) / RFU ACY1 (11761880_at) / Fold change /veh ACY1 (11761880_at) / RFU 11764098_at / Fold change /veh 11764098_at / RFU SAMD14 (11745864_x_at) / Fold change /veh SAMD14 (11745864_x_at) / RFU NPB (11741838_a_at) / Fold change /veh NPB (11741838_a_at) / RFU TMPRSS6 (11731388_a_at) / Fold change /veh TMPRSS6 (11731388_a_at) / RFU KRTAP10-2 (11738614_at) / Fold change /veh KRTAP10-2 (11738614_at) / RFU ARHGAP8 /// PRR5-ARHGAP8 (11727945_x_at) / Fold change /veh ARHGAP8 /// PRR5-ARHGAP8 (11727945_x_at) / RFU KRTAP5-7 /// NADSYN1 (11734609_at) / Fold change /veh KRTAP5-7 /// NADSYN1 (11734609_at) / RFU RASL12 (11751679_a_at) / Fold change /veh RASL12 (11751679_a_at) / RFU CDKN2B (11736163_a_at) / Fold change /veh CDKN2B (11736163_a_at) / RFU PRF1 (11729649_at) / Fold change /veh PRF1 (11729649_at) / RFU, ZNF638 /// ZNF638-IT1 / Fold change vs veh, ZNF638 /// ZNF638-IT1 / RFU, PANK3 / Fold change vs veh, PANK3 / RFU, SH3YL1 / Fold change vs veh, SH3YL1 / RFU, ZEB2 / Fold change vs veh, ZEB2 / RFU, NRIP1 / Fold change vs veh, NRIP1 / RFU, PTTG1IP / Fold change vs veh, PTTG1IP / RFU, CAPN2 / Fold change vs veh, CAPN2 / RFU, MED14 / Fold change vs veh, MED14 / RFU, SNORA58 / Fold change vs veh, SNORA58 / RFU, C1orf63 / Fold change vs veh, C1orf63 / RFU, LRRFIP1 / Fold change vs veh, LRRFIP1 / RFU, NDUFAF7 / Fold change vs veh, NDUFAF7 / RFU, SLC12A2 / Fold change vs veh, SLC12A2 / RFU, IBTK / Fold change vs veh, IBTK / RFU, ESF1 / Fold change vs veh, ESF1 / Fold change vs veh, TMEM50B / RFU, TAOK1 / Fold change vs veh, TAOK1 / RFU, ACBD3 / Fold change vs veh, ACBD3 / RFU, TMA16 / Fold change vs veh, TMA16 / RFU, RWDD3 / Fold change vs veh, RWDD3 / RFU, BCAT1 / Fold change vs veh, BCAT1 / RFU, EDEM3 / Fold change vs veh, EDEM3 / RFU, TMEM33 / Fold change vs veh, TMEM33 / RFU, WDR75 / Fold change vs veh, WDR75 / RFU, AHCTF1 / Fold change vs veh, AHCTF1 / RFU, TFRC / Fold change vs veh, TFRC / RFU, ZDHHC17 / Fold change vs veh, ZDHHC17 / RFU, NOM1 / Fold change vs veh, NOM1 / RFU, ARL8B / Fold change vs veh, ARL8B / RFU, ZBTB11 / Fold change vs veh, ZBTB11 / RFU, TAMM41 / Fold change vs veh, TAMM41 / RFU, KIAA1704 /// LOC100996395 / Fold change vs veh, KIAA1704 /// LOC100996395 / RFU, ING1 / Fold change vs veh, ING1 / RFU, TRMT61B / Fold change vs veh, TRMT61B / RFU, FUBP3 / Fold change vs veh, FUBP3 / RFU, TP53 / Fold change vs veh, TP53 / RFU, TNKS2 / Fold change vs veh, TNKS2 / RFU, ZFP14 / Fold change vs veh, ZFP14 / RFU, ACTR2 / Fold change vs veh, ACTR2 / RFU, PPP3R1 / Fold change vs veh, PPP3R1 / RFU, PIK3R1 / Fold change vs veh, PIK3R1 / RFU, HNRNPA1 / Fold change vs veh, HNRNPA1 / RFU, RNF170 / Fold change vs veh, RNF170 / RFU, ZNF28 / Fold change vs veh, ZNF28 / RFU, RNGTT / Fold change vs veh, RNGTT / RFU, OGT / Fold change vs veh, OGT / RFU, BRD1 / Fold change vs veh, BRD1 / RFU, MARS / Fold change vs veh, MARS / RFU, ZNF655 / Fold change vs veh, ZNF655 / RFU, FAHD1 / Fold change vs veh, FAHD1 / RFU, BDP1 / Fold change vs veh, BDP1 / RFU, LRRCC1 / Fold change vs veh, LRRCC1 / RFU, ARID1A / Fold change vs veh, ARID1A / RFU, ZNF146 / Fold change vs veh, ZNF146 / RFU, ZNF330 / Fold change vs veh, ZNF330 / RFU, GPN3 / Fold change vs veh, GPN3 / RFU, C9orf123 / Fold change vs veh, C9orf123 / RFU, N4BP2L2 / Fold change vs veh, N4BP2L2 / RFU, ARFIP1 / Fold change vs veh, ARFIP1 / RFU, FAM179B / Fold change vs veh, FAM179B / RFU, BCL10 / Fold change vs veh, BCL10 / RFU, UHRF1BP1L / Fold change vs veh, UHRF1BP1L / RFU, BET1 / Fold change vs veh, BET1 / RFU, CNOT2 / Fold change vs veh, CNOT2 / RFU, ZNF268 / Fold change vs veh, ZNF268 / Fold change vs veh, ZNF507 / RFU, DGCR2 / Fold change vs veh, DGCR2 / RFU, WDSUB1 / Fold change vs veh, WDSUB1 / Fold change vs veh, HSP90B1 /// MIR3652 / RFU, ADSS / Fold change vs veh, ADSS / RFU, GK / Fold change vs veh, GK / RFU, ZNF148 / Fold change vs veh, ZNF148 / RFU, TAF9 / Fold change vs veh, TAF9 / RFU, SLC1A5 / Fold change vs veh, SLC1A5 / RFU, SLMO2 / Fold change vs veh, SLMO2 / RFU, ABCC4 / Fold change vs veh, ABCC4 / RFU, LOC101060439 /// RAP1B / Fold change vs veh, LOC101060439 /// RAP1B / RFU, RFX7 / Fold change vs veh, RFX7 / RFU, GTPBP10 / Fold change vs veh, GTPBP10 / RFU, CNEP1R1 / Fold change vs veh, CNEP1R1 / RFU, BIVM-ERCC5 /// ERCC5 / Fold change vs veh, BIVM-ERCC5 /// ERCC5 / RFU, ILF3 / Fold change vs veh, ILF3 / RFU 11762660_at / Fold change /veh 11762660_at / RFU VCAN (11757783_s_at) / Fold change /veh VCAN (11757783_s_at) / RFU DDX43 (11728927_at) / Fold change /veh DDX43 (11728927_at) / RFU KRT8 (11758188_x_at) / Fold change /veh KRT8 (11758188_x_at) / RFU NKD1 (11759106_at) / Fold change /veh NKD1 (11759106_at) / RFU SRD5A1 (11742802_a_at) / Fold change /veh SRD5A1 (11742802_a_at) / RFU TPSAB1 /// TPSB2 (11721975_s_at) / Fold change /veh TPSAB1 /// TPSB2 (11721975_s_at) / RFU GSTM3 (11746129_a_at) / Fold change /veh GSTM3 (11746129_a_at) / RFU IL23R (11737362_x_at) / Fold change /veh IL23R (11737362_x_at) / RFU TMEM51 (11727254_a_at) / Fold change /veh TMEM51 (11727254_a_at) / RFU PIWIL2 (11732686_x_at) / Fold change /veh PIWIL2 (11732686_x_at) / RFU ORM1 (11744905_x_at) / Fold change /veh ORM1 (11744905_x_at) / RFU CCDC152 (11743942_at) / Fold change /veh CCDC152 (11743942_at) / RFU ECM1 (11717891_a_at) / Fold change /veh ECM1 (11717891_a_at) / RFU IL23R (11748794_a_at) / Fold change /veh IL23R (11748794_a_at) / RFU TNFAIP8L3 (11732012_x_at) / Fold change /veh TNFAIP8L3 (11732012_x_at) / RFU MBOAT4 (11741988_at) / Fold change /veh MBOAT4 (11741988_at) / RFU 11764193_at / Fold change /veh 11764193_at / RFU TMEM53 (11763286_at) / Fold change /veh TMEM53 (11763286_at) / RFU MAGEB2 (11727129_at) / Fold change /veh MAGEB2 (11727129_at) / RFU TMEM200A (11744735_a_at) / Fold change /veh TMEM200A (11744735_a_at) / RFU CCDC152 (11751479_a_at) / Fold change /veh CCDC152 (11751479_a_at) / RFU FAM211A (11726209_a_at) / Fold change /veh FAM211A (11726209_a_at) / RFU RGS16 (11746705_a_at) / Fold change /veh RGS16 (11746705_a_at) / RFU VCAN (11755009_s_at) / Fold change /veh VCAN (11755009_s_at) / RFU RHOB (11743442_s_at) / Fold change /veh RHOB (11743442_s_at) / RFU RGS16 (11720943_a_at) / Fold change /veh RGS16 (11720943_a_at) / RFU RGS16 (11720944_at) / Fold change /veh RGS16 (11720944_at) / RFU, VPS4B / Fold change vs veh, VPS4B / RFU, CREB1 / Fold change vs veh, CREB1 / RFU, DNAJC13 / Fold change vs veh, DNAJC13 / RFU, GNAQ / Fold change vs veh, GNAQ / RFU, CDK5R1 / Fold change vs veh, CDK5R1 / RFU, ZRANB3 / Fold change vs veh, ZRANB3 / RFU, CUL4A / Fold change vs veh, CUL4A / RFU, CCNY / Fold change vs veh, CCNY / RFU, UFL1 / Fold change vs veh, UFL1 / RFU, COG3 / Fold change vs veh, COG3 / RFU, DIAPH2 / Fold change vs veh, DIAPH2 / RFU, SKA2 / Fold change vs veh, SKA2 / RFU, AFF3 / Fold change vs veh, AFF3 / RFU, LMF1 / Fold change vs veh, LMF1 / RFU, IPO11 / Fold change vs veh, IPO11 / RFU, DFFB / Fold change vs veh, DFFB / RFU, FOXP1 / Fold change vs veh, FOXP1 / RFU, CARD8 / Fold change vs veh, CARD8 / RFU, STRN3 / Fold change vs veh, STRN3 / RFU, ADK / Fold change vs veh, ADK / RFU, RASSF2 / Fold change vs veh, RASSF2 / RFU, WIPF1 / Fold change vs veh, WIPF1 / RFU, LARP1B / Fold change vs veh, LARP1B / RFU, RASA1 / Fold change vs veh, RASA1 / RFU, RB1 / Fold change vs veh, RB1 / RFU, PPFIA1 / Fold change vs veh, PPFIA1 / RFU, MAT2A / Fold change vs veh, MAT2A / RFU, CCT5 / Fold change vs veh, CCT5 / RFU, WDR92 / Fold change vs veh, WDR92 / RFU, CUX1 / Fold change vs veh, CUX1 / RFU, TTC7A / Fold change vs veh, TTC7A / RFU, TMEM135 / Fold change vs veh, TMEM135 / RFU, DEPTOR / Fold change vs veh, DEPTOR / RFU, CPM / Fold change vs veh, CPM / RFU, DNAJB6 / Fold change vs veh, DNAJB6 / RFU, CACNA2D3 / Fold change vs veh, CACNA2D3 / RFU, DTX4 / Fold change vs veh, DTX4 / RFU, TFCP2 / Fold change vs veh, TFCP2 / RFU, GMCL1 /// GMCL1P1 / Fold change vs veh, GMCL1 /// GMCL1P1 / RFU, AEBP2 / Fold change vs veh, AEBP2 / RFU, SNHG1 /// SNORD22 /// SNORD25 /// SNORD26 /// SNORD27 /// SNORD28 /// SNORD29 /// SNORD31 / Fold change vs veh, SNHG1 /// SNORD22 /// SNORD25 /// SNORD26 /// SNORD27 /// SNORD28 /// SNORD29 /// SNORD31 / Fold change (Aza/veh), C12orf56 (ProbeSet 11735607_a_at) / Fold change (ACY-1035/veh), C12orf56 (ProbeSet 11735607_a_at) / Fold change (Aza/veh), FGFR1OP (ProbeSet 11751329_s_at) / Fold change (ACY-1035/veh), FGFR1OP (ProbeSet 11751329_s_at) / Fold change (Aza/veh), VPS36 (ProbeSet 11739960_a_at) / Fold change (ACY-1035/veh), VPS36 (ProbeSet 11739960_a_at) / RFU SYPL1 (11715823_x_at) / Fold change /veh SYPL1 (11715823_x_at) / RFU IGFBP7 (11715501_s_at) / Fold change /veh IGFBP7 (11715501_s_at) / RFU REEP3 (11722064_at) / Fold change /veh REEP3 (11722064_at) / RFU IGLL1 (11728026_x_at) / Fold change /veh IGLL1 (11728026_x_at): dose or concentration left out as unconfirmed
Conditions: MV-4-11 cells, 48 hours

With `Nc1ccc(-c2cccs2)cc1NC(=O)c1ccc2c(c1)cc(C1CC1)n2CCN1CCOCC1` [ACY-1035] the “Fold change /veh ZSCAN30 (11745921_a_at)” value was 1.04.
